# Where two headings read alike, the source gives them in different places.
# Key:
# [1] = system: ALA dehydratase variant of strain CR-514; test: ALA dehydratase reaction with crude enzyme of strain CR-514; assay type: biochemical, Rhodobacter sphaeroides CR-514; conditions: enzyme of CR-514, unit not given (concentrations in method in mM)
# [2] = system: Rhodobacter sphaeroides CR-450; conditions: glycine 30 mM, 30° C., dark
# Protocol: (§1) A 500 ml portion of medium 1 was prepared in a 2 l capacity shaking flask. This was sterilized at 121° C. for 15 minutes and then spontaneously cooled.
# (§2) Separately from this, each of the mutant strains CR-514, CR-520 and CR-533 obtained in Example 3 was inoculated into a 21 mm.phi. test tube containing 10 ml of medium 1 which was sterilized in the same manner as described in the foregoing and cultured in the dark at 30° C. for 48 hours on a shaker.
# (§3) The entire portion of each culture broth was inoculated into the aforementioned shaking flask and cultured in the dark at 30° C. for 48 hours on a shaker, and the resulting cells were collected by centrifugation.
# (§4) The thus collected cells were suspended in 150 ml of sterilized medium 1, to a wet cell density of about 0.3 g/10 ml, and the cell suspension was mixed with 30 mM of glycine and dispensed in 10 ml portions into 21 mm.phi. test tubes. After adding varied concentration of levulinic acid, shaking culture was carried out at 30° C. in the dark.
# (§5) (Clinical Chemistry, 36(8): 1494 (1990)).
# The process of Example 4 was conducted, except that Rhodobacter sphaeroides CR-450 was used and the amount of levulinic acid was changed as shown in Table 3.
# [3] = target: ALA dehydratase of strain CR-533; conditions: inhibitor constant of levulinic acid, Dixon plot; enzyme of CR-533; 37° C., 60 minutes; unit not given (concentrations in method in mM)
# strain CR-533 = conditions: glycine 30 mM, 30° C., dark
# Protocol: as §1, §2, §3, §4, §5
# strain CR-520 = conditions: glycine 30 mM, 30° C., dark
# Protocol: as §1, §2, §3, §4, §5
# strain CR-514 = conditions: glycine 30 mM, 30° C., dark
# Protocol: as §1, §2, §3, §4, §5
# [4] = system: Rhodobacter sphaeroides IFO 12203; conditions: glycine 30 mM, 30° C., dark
# Protocol: as §1, §2, §3, §4, §5
# [5] = target: ALA dehydratase variant of strain CR-520; test: ALA dehydratase reaction with crude enzyme of strain CR-520; assay type: biochemical, Rhodobacter sphaeroides CR-520; conditions: inhibitor constant of levulinic acid, Dixon plot; enzyme of CR-520; 37° C., 60 minutes; unit not given (concentrations in method in mM)
# [6] = target: ALA dehydratase of Rhodobacter sphaeroides CR-450; test: ALA dehydratase reaction with crude enzyme of CR-450 (Comparative Example 2); assay type: biochemical; conditions: inhibitor constant of levulinic acid, Dixon plot, 37° C., 60 minutes, unit not given (concentrations in method in mM)
structure (smiles),measurement,setting,value
"NCC(=O)CCC(=O)O [ALA, 5-aminolevulinic acid]",Km,"[1]; Michaelis constant for ALA, Lineweaver-Burk",0.76 mM
CC(=O)CCC(=O)O [levulinic acid],Ki,"[1]; inhibitor constant of levulinic acid, Dixon plot, 37° C., 60 minutes",0.21 mM
same,Amount of ALA formed after 15 hours,[2]; levulinic acid 5 mM,1.5 mM
same,Amount of ALA formed after 30 hours,[2]; levulinic acid 5 mM,1.5 mM
same,Amount of ALA formed after 15 hours,[2]; levulinic acid 15 mM,2.5 mM
same,Amount of ALA formed after 30 hours,[2]; levulinic acid 15 mM,3.8 mM
same,Amount of ALA formed after 15 hours,[2]; levulinic acid 30 mM,2.0 mM
same,Amount of ALA formed after 30 hours,[2]; levulinic acid 30 mM,2.5 mM
same,Ki,[3],0.36 mM
same,Amount of ALA formed after 15 hours,strain CR-533; levulinic acid 5 mM,1.7 mM
same,Amount of ALA formed after 30 hours,strain CR-533; levulinic acid 5 mM,2.4 mM
same,Amount of ALA formed after 15 hours,strain CR-533; levulinic acid 15 mM,2.4 mM
same,Amount of ALA formed after 30 hours,strain CR-533; levulinic acid 15 mM,3.9 mM
same,Amount of ALA formed after 15 hours,strain CR-533; levulinic acid 30 mM,2.2 mM
same,Amount of ALA formed after 30 hours,strain CR-533; levulinic acid 30 mM,3.3 mM
same,Amount of ALA formed after 15 hours,strain CR-520; levulinic acid 0.5 mM,2.0 mM
same,Amount of ALA formed after 30 hours,strain CR-520; levulinic acid 0.5 mM,2.8 mM
same,Amount of ALA formed after 15 hours,strain CR-520; levulinic acid 1 mM,2.5 mM
same,Amount of ALA formed after 30 hours,strain CR-520; levulinic acid 1 mM,4.5 mM
same,Amount of ALA formed after 15 hours,strain CR-520; levulinic acid 5 mM,3.0 mM
same,Amount of ALA formed after 30 hours,strain CR-520; levulinic acid 5 mM,6.5 mM
same,Amount of ALA formed after 15 hours,strain CR-514; levulinic acid 1 mM,1.5 mM
same,Amount of ALA formed after 30 hours,strain CR-514; levulinic acid 1 mM,1.5 mM
same,Amount of ALA formed after 15 hours,strain CR-514; levulinic acid 5 mM,2.0 mM
same,Amount of ALA formed after 30 hours,strain CR-514; levulinic acid 5 mM,3.0 mM
same,Amount of ALA formed after 15 hours,strain CR-514; levulinic acid 10 mM,2.2 mM
same,Amount of ALA formed after 30 hours,strain CR-514; levulinic acid 10 mM,4.1 mM
same,Amount of ALA formed after 15 hours,[4]; levulinic acid 5 mM,0.01 mM
same,Amount of ALA formed after 30 hours,[4]; levulinic acid 5 mM,0 mM
same,Amount of ALA formed after 15 hours,[4]; levulinic acid 15 mM,0.1 mM
same,Amount of ALA formed after 30 hours,[4]; levulinic acid 15 mM,0 mM
same,Ki,[5],0.07 mM
same,Ki,[6],0.37 mM

# From patent US5763235A (priority 1994, dated 1998)
